Source: patent publication US5521173A, “Tricyclic benzazepine vasopressin antagonists” (American Home Products Corporation, priority 1995, dated 1996)

Columns and labels:
[1] = molecular target: T1, Rat Kidney Medullary V2 Receptors (Rattus norvegicus, UniProt Q00788); experiment: Binding Assay to Rat Kidney Medullary V2 Receptors; details: rat kidney medullary V2 (no asterisk)
T1 construct: Medullary tissues from rat kidneys are dissected out; from tissue; host or cells: rat kidney medulla membranes
T1 sequence (Q00788 whole entry): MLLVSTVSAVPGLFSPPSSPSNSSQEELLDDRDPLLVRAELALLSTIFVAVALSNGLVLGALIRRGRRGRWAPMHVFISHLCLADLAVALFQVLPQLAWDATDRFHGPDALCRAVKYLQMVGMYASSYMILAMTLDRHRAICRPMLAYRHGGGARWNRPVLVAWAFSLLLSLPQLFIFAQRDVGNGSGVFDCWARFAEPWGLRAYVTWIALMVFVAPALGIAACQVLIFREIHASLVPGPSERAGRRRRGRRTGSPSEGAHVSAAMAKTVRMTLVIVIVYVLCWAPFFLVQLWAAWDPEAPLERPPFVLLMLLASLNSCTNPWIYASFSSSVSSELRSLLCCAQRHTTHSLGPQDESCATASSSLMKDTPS
Method: Binding Assay to Rat Kidney Medullary V2 Receptors
Medullary tissues from rat kidneys are dissected out, cut into small pieces and soaked in a […] sodium chloride solution containing 1.0 mM EDTA with many changes of the liquid phase, until the solution is clear of blood. The tissue is homogenized in a 0.25M sucrose solution containing 1.0 mM EDTA and 0.1 mM PMSF using a Potter-Elvehjem homogenizer with a teflon pestle. The homogenate is filtered through several layers (4 layers) of cheese cloth. The filtrate is rehomogenized using a dounce homogenizer, with a tight fitting pestle. The final homogenate is centrifuged at 1500× g for 15 min. […] The protein content is determined by the Lowry's method (Lowry et al., J. Biol. Chem., 1953). […]
For binding experiments, the following is added in μl volume to wells of a 96 well format of a microtiter plate: 100.0 μl of 100.0 mM Tris.HCl buffer containing 0.2% heat inactivated BSA, 10.0 mM MgCl2 and a mixture of protease inhibitors: leupeptin, 1.0 mg %; aprotinin, 1.0 mg %; 1,10-phenanthroline, 2.0 mg %; trypsin inhibitor, 10.0 mg % and 0.1 mM PMSF, 20.0 μl of [^3 H] […] Non-specific binding is assessed in the presence of 1.0 μM of unlabeled ligand, added in 20 μl volume. […] The data are analyzed for IC50 values by the LUNDON-2 program for competition (LUNDON SOFTWARE, Ohio).

[2] = tested on: Vasopressin V2; experiment: Vasopressin V2 Antagonist Activity in Conscious Hydrated Rats; format: in vivo, rat; details: 10 mg/kg orally, AVP 0.4 μg/kg i.p.; for Osmolality: urine
Method: Two to four rats are used for each compound. One hour later, arginine vasopressin (AVP, antidiuretic hormore, ADH) dissolved in peanut oil is administered at 0.4 μg/kg intraperitoneally. Two rats in each test would not receive arginine vasopressin but only the vehicle (peanut oil) to serve as water-loading control. Twenty minutes later each rat is given 30 mL/kg of deionized water orally by gavage and is placed individually in a metabolic cage equipped with a funnel and a graduated glass cylinder to collect urine for four hours. Urine volume is measured and osmolality analyzed by use of a Fiske One-Ten osmometer (Fiske Assoc., Norwood, Mass., USA). Urinary sodium, potassium, and chloride are analyzed by use of ion-specific electrodes in a Beckman E3 (Electrolyte 3) Analyzer. In the following results, […] and decreased osmolality relative to AVP-control indicates activity.

[3] = molecular target: T2, Human V2 Vasopressin Receptor (Homo sapiens, UniProt P30518); experiment: Binding to Membranes of Mouse Fibroblast Cell Line (LV-2) Transfected with the cDNA Expressing the Human V2 Vasopressin Receptor; details: ** LV-2 cell membranes
T2 construct: expressed in transfected cells; host or cells: mouse fibroblast cell line LV-2
T2 sequence (P30518 whole entry): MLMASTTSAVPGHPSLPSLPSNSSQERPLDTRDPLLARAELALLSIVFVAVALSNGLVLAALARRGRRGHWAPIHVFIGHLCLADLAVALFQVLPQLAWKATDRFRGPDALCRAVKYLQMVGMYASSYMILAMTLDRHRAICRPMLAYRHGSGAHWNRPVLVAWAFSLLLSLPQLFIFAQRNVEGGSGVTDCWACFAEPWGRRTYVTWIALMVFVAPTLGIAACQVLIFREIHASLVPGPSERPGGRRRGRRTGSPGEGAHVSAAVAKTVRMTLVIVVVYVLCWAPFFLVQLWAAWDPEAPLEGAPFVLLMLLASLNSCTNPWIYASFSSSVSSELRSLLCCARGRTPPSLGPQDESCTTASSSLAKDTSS
Method: (a) Membrane Preparation Flasks of 175 ml capacity, containing attached cells grown to confluence, are cleared of culture medium by aspiration. […] The content of all flasks is poured into a centrifuge tube and the cells pelleted at 300× g for 15 min. The Hank's based solution is aspirated off and the cells homogenized with a polytron at setting #6 for 10 sec in 10.0 mM Tris.HCl buffer, pH 7.4 containing 0.25M sucrose and 1.0 mM EDTA. The homogenate is centrifuged at 1500× g for 10 min to remove ghost membranes. The supernatant fluid is centrifuged at 100,000× g for 60 min to pellet the receptor protein. […] (b) Receptor Binding […] Non specific binding is assessed in the presence of 1.0 μM of unlabeled ligand, added in 20 μl volume. […] The radioactivity trapped on the filter disk by the ligand-receptor complex is assessed by liquid scintillation counting in a Packard LS Counter, with an efficiency of 65% for tritium. The data are analyzed for IC50 values by the LUNDON-2 program for competition (LUNDON SOFTWARE, Ohio).

In the case of `O=C(c1ccc(-c2ccccc2C(F)(F)F)cc1)N1Cc2cccn2Cc2ccccc21` [Example 8], the IC50 [1] is reported as 3.3 µM, the “Urine Volume” value [2] is reported as 8 ml/4 hrs and the Osmolality [2] is reported as 887 mOsm/kg.
`O=C(c1ccc(-c2cc(F)cc(F)c2)cc1)N1Cc2cccn2Cc2ccccc21` [Example 3, 10,11-Dihydro-10-[4-(3,5-difluorophenyl)benzoyl]-5H-pyrrolo[2,1-c][1,4]benzodiazepine] was tested, and the IC50 [3] was 2.5 µM, the “Urine Volume” value [2] was 5.9 ml/4 hrs and the Osmolality [2] was 1205 mOsm/kg.
`O=C(c1ccc(-c2ccccc2)cc1)N1Cc2ccnn2Cc2ccccc21` [Example 7, 5-([1,1'-Biphenyl]-4-ylcarbonyl)-5,10-dihydro-4H-pyrazolo[5,1-c][1,4]benzodiazepine] was tested, and the IC50 [3] was 1.7 µM, the “Urine Volume” value [2] was 7.5 ml/4 hrs and the Osmolality [2] was 1005 mOsm/kg.
With `O=C(c1ccc(-c2ccccn2)cc1)N1Cc2cccn2Cc2ccccc21` [Example 9, 10,11-Dihydro-10-[4-(2-pyridinyl)benzoyl]-5H-pyrrolo[2,1-c][1,4]benzodiazepine] the IC50 [1] was 1.2 µM, the “Urine Volume” value [2] was 8.3 ml/4 hrs and the Osmolality [2] was 857 mOsm/kg.
For `O=C(c1ccc(-c2ccccc2)cc1)N1Cc2cccn2Cc2ccccc21` [Example 19, 10-([1,1'-Biphenyl]-4-ylcarbonyl)-10,11-dihydro-5H-pyrrolo[2,1-c][1,4]benzodiazepine], the IC50 [3] was 0.39 µM, the “Urine Volume” value [2] was 3.5 ml/4 hrs and the Osmolality [2] was 1598 mOsm/kg.
